Experimental data as given in US20140155410A1 (GlaxoSmithKline LLC, priority 2008, published 2014).

Key:
[1] = target: T1, Full length Human FAK (Flag-His-TEV-FAK1) (Homo sapiens, UniProt Q05397); assay: Biochemical assay for FAK activity, Assay 2: LANCE Ultra ULight peptide phosphorylation, 665 nm/615 nm ratio; settings: Flag-His-TEV-FAK1, 10 μM ATP, 30 min pre-incubation; for IC50: read-out: Assay 2 FAK H 31284A TRF PXC50 (converted)
T1 construct: Full length Human FAK was expressed using baculovirus in Sf9 cells; made in house; host or cells: baculovirus in Sf9 cells
T1 sequence (Q05397 whole entry): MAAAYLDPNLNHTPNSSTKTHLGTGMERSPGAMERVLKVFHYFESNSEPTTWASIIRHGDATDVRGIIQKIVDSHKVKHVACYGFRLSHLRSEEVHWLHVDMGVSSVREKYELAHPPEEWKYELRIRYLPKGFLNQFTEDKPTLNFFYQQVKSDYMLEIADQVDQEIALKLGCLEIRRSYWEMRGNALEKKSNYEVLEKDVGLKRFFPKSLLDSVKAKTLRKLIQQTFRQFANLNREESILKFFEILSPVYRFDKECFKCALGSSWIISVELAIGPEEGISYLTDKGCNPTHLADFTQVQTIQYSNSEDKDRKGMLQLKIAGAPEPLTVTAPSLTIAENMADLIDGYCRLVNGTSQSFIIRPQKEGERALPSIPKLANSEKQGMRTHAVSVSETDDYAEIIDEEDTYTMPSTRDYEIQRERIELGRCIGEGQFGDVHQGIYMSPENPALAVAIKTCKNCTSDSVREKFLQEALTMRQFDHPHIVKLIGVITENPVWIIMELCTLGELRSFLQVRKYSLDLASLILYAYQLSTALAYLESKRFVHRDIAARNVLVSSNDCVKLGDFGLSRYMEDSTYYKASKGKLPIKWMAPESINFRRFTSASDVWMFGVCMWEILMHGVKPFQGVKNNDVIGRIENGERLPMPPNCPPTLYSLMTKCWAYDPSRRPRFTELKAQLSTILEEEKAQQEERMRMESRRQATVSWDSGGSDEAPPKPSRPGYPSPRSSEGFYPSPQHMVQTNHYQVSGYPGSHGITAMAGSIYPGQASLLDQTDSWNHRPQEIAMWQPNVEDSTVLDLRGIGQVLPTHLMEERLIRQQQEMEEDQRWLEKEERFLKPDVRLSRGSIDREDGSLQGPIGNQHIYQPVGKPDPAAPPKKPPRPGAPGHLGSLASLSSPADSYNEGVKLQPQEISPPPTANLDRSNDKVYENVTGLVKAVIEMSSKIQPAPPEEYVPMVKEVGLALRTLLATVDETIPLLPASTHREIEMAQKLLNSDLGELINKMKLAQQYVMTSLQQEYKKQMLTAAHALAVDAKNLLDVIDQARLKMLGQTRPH
Procedure: Flag-His-TEV-FAK1 was prepared in-house. Full length Human FAK was expressed using baculovirus in Sf9 cells with N-terminal FLAG-6×His tags followed by a TEV cleavage site (FLAG-6×His-TEV-huFAK). […] To measure inhibitors of FAK, compounds were first prepared as a 100× stock in 100% DMSO. […] After incubating for 120 minutes at room temperature, the reaction is quenched by adding 5 uL of 20 mM EDTA and 5nMEu-Anti-pTyr antibody in 1× LANCE detection buffer.

GST-tagged FAK = target: T2, GST-tagged FAK (Homo sapiens, UniProt Q05397); assay: Biochemical assay for FAK activity, Assay 1: phosphorylation of peptide substrate with radio-labeled ATP; settings: 5 μM ATP, 30 min pre-incubation; for IC50: read-out: Assay 1 FAK TRF PXC50 (converted)
T2 construct: purchased Invitrogen PV3832
T2 sequence (Q05397 whole entry): as above
Procedure: GST-tagged (glutathione S-transferase-tagged) FAK was purchased from Invitrogen (PV3832) (www.invitrogen.com). […] To measure inhibitors of FAK, compounds were first prepared as a 10× stock in 10% DMSO. […] A 6-nM GST-FAK solution was prepared in 1.1× reaction buffer containing 44 mM HEPES, pH=7.2, 11 mM MgCl2, 2.2 mM MnCl2, 1.1 mM DTT and 0.011% Tween-20. Then, 20 μL of the 6 nM GST-FAK solution were pre-incubated with the compounds for 30 min at room temperature. […] The reaction was allowed to proceed for 90 min before being quenched with 40 μL of 1% H3PO4. A portion of the reaction mixture (60 μL) was transferred to a phospho-cellulose filter plate (Millipore; www.millipore.com, MAPHNOB50) and incubated for 20 minutes. The plate was filtrated, washed three times using 150 μL of 0.5% H3PO4 and dried at 50° C. for 30 min. After the addition of 60 μL Microscint-20 to the plate, radioactivity was measured using a TopCount (PerkinElmer; www.PerkinElmer.com).

Compound | IC50 [1] [nM] | IC50 (GST-tagged FAK) [nM] | further results
CCn1nccc1Nc1cc(Nc2ccccc2C(=O)NOC)c(Cl)cn1 [Example 40, 2-({5-Chloro-2-[(1-ethyl-1H-pyrazol-5-yl)amino]-4-pyridinyl}amino)-N-(methyloxy)benzamide] | 2.51 | 1.26 | 
CCn1nc(C)cc1Nc1cc(Nc2ccccc2C(=O)NOC)c(Cl)cn1 [Example 39, 2-({5-Chloro-2-[(1-ethyl-3-methyl-1H-pyrazol-5-yl)amino]-4-pyridinyl}amino)-N-(methyloxy)benzamide] | 5.01 | 0.398 | 
CNC(=O)c1ccccc1Nc1cc(Nc2cc(C)nn2CCN(C)C)ncc1Cl [Example 23, 2-{[5-Chloro-2-({1-[2-(dimethylamino)ethyl]-3-methyl-1H-pyrazol-5-yl}amino)-4-pyridinyl]amino}-N-methylbenzamide] | 200 | 79.4 | 
CNC(=O)c1ccccc1Nc1cc(Nc2ccnn2C)ncc1Cl [Example 2, 2-({5-Chloro-2-[(1-methyl-1H-pyrazol-5-yl)amino]-4-pyridinyl}amino)-N-methylbenzamide] | 10 | 1.58 | 
CNC(=O)c1cc(F)ccc1Nc1cc(Nc2cc(C)nn2C)ncc1Cl [Example 7, 2-({5-Chloro-2-[(1,3-dimethyl-1H-pyrazol-5-yl)amino]-4-pyridinyl}amino)-5-fluoro-N-methylbenzamide] | 10 | 0.794 | 
CNC(=O)c1cc(Cl)ccc1Nc1cc(Nc2cc(C)nn2C)ncc1Cl [Example 11, 5-Chloro-2-({5-chloro-2-[(1,3-dimethyl-1H-pyrazol-5-yl)amino]-4-pyridinyl}amino)-N-methylbenzamide] | 6.31 | 2 | 
CNC(=O)c1ccccc1Nc1cc(Nc2cc(C)nn2-c2ccccc2)ncc1C(F)(F)F [Example 33, N-Methyl-2-{[2-[(3-methyl-1-phenyl-1H-pyrazol-5-yl)amino]-5-(trifluoromethyl)-4-pyridinyl]amino}benzamide] |  | 0.398 | 
CNC(=O)c1cc(N2CCN(CCO)CC2)ccc1Nc1cc(Cl)ncc1Cl [Example 66, 2-[(2,5-Dichloro-4-pyridinyl)amino]-5-[4-(2-hydroxyethyl)-1-piperazinyl]-N-methylbenzamide] | 31.6 | 2 | 
2-({5-Chloro-2-[(1,3-dimethyl-1H-pyrazol-4-yl)amino]-4-pyridinyl}amino)-N-methylbenzamide [Example 27] |  |  | Assay 2 FAK H 31284A TRF PXC50 [1]: 8.1; Assay 1 FAK TRF PXC50 (GST-tagged FAK): 8.7
CNC(=O)c1ccccc1Nc1cc(Nc2cc(C)nn2CCO)ncc1C(F)(F)F [Example 34, 2-{[2-{[1-(2-hydroxyethyl)-3-methyl-1H-pyrazol-5-yl]amino}-5-(trifluoromethyl)-4-pyridinyl]amino}-N-methylbenzamide] |  | 0.501 | 
2-({5-Chloro-2-[(1-ethyl-1H-pyrazol-5-yl)amino]-4-pyridinyl}amino)-4,5-difluoro-N-methylbenzamide [Example 10] |  |  | Assay 2 FAK H 31284A TRF PXC50 [1]: 8; Assay 1 FAK TRF PXC50 (GST-tagged FAK): 9.1
CNC(=O)c1ccccc1Nc1cc(Nc2cc(C)nn2C(C)C)ncc1C(F)(F)F [Example 30, N-Methyl-2-{[2-[(3-methyl-1-(1-methylethyl)-1H-pyrazol-5-yl]amino}-5-(trifluoromethyl)-4-pyridinyl]amino}benzamide] | 1.58 | 0.398 | 
[2H]C([2H])(O)c1cc(Nc2cc(Nc3c(F)cccc3C(=O)NC)c(Cl)cn2)n(C)n1 [Example 93, 2-[(5-Chloro-2-{[3-(hydroxymethyl)-1-methyl-1H-pyrazol-5-yl]amino}-4-pyridinyl)amino]-3-fluoro-N-methylbenzamide-d2] | 10 |  | 
Cc1cc(Nc2cc(Nc3ccc(F)cc3C(=O)N3CCCN3)c(Cl)cn2)n(C(C)C)n1 [Example 96a, 5-Chloro-N^4-[4-fluoro-2-(1-pyrazolidinylcarbonyl)phenyl]-N^2-[3-methyl-1-(1-methylethyl)-1H-pyrazol-5-yl]-2,4-pyridinediamine] | 20000 |  | 
CONC(=O)c1cccc(F)c1Nc1cc(Nc2cnn(C)c2C)ncc1Cl [Example 95f, 2-({5-Chloro-2-[(1,5-dimethyl-1H-pyrazol-4-yl)amino]-4-pyridinyl}amino)-3-fluoro-N-(methyloxy)benzamide] | 2 |  | 
CCn1nc(C)cc1Nc1cc(Nc2ccccc2C(=O)NOC)c(C2CC2)cn1 [Example 56, 2-[5-Cyclopropyl-2-(2-ethyl-5-methyl-2H-pyrazol-3-ylamino)-pyridin-4-ylamino]-N-methoxy-benzamide] | 15.8 |  | 
CCn1nc(CN(C)C)cc1Nc1cc(Nc2c(F)cccc2C(=O)NC)c(Cl)cn1 [Example 92, 2-{[5-Chloro-2-({3-[(dimethylamino)methyl]-1-ethyl-1H-pyrazol-5-yl}amino)-4-pyridinyl]amino}-3-fluoro-N-methylbenzamide] | 501 |  | 
CNC(=O)c1cccc(F)c1Nc1cc(Nc2cnn(C)c2C)ncc1Cl [Example 76, 2-({5-Chloro-2-[(1,5-dimethyl-1H-pyrazol-4-yl)amino]-4-pyridinyl}amino)-3-fluoro-N-methylbenzamide] | 12.6 |  | 
CNC(=O)c1ccccc1Nc1cc(Nc2cc(C)nn2CCN(C)C)ncc1C(F)(F)F [Example 31, 2-{[2-({1-[2-(Dimethylamino)ethyl]-3-methyl-1H-pyrazol-5-yl}amino)-5-(trifluoromethyl)-4-pyridinyl]amino}-N-methylbenzamide] |  | 3.98 | 
CCn1nc(C)cc1Nc1cc(Nc2c(F)cccc2C(=O)NOC)c(Cl)cn1 [Example 95a, 2-({5-Chloro-2-[(1-ethyl-3-methyl-1H-pyrazol-5-yl)amino]-4-pyridinyl}amino)-3-fluoro-N-(methyloxy)benzamide] | 1.58 |  | 
CCn1nc(C(=O)O)cc1Nc1cc(Nc2ccccc2C(=O)NC)c(Cl)cn1 [Example 18, 5-{[5-Chloro-4-({2-[(methylamino)carbonyl]phenyl}amino)-2-pyridinyl]amino}-1-ethyl-1H-pyrazole-3-carboxylic acid] |  | 10 | 
CONC(=O)c1cccc(F)c1Nc1cc(Nc2cc(C)nn2C)ncc1Cl [Example 95b, 2-({5-Chloro-2-[(1,3-dimethyl-1H-pyrazol-5-yl)amino]-4-pyridinyl}amino)-3-fluoro-N-(methyloxy)benzamide] | 2 |  | 
CCn1nc(C)cc1Nc1cc(Nc2ccc(F)cc2C(=O)NC)c(Cl)cn1 [Example 84, 2-({5-Chloro-2-[(1-ethyl-3-methyl-1H-pyrazol-5-yl)amino]-4-pyridinyl}amino)-5-fluoro-N-methylbenzamide] | 10 |  | 
CCn1nc(CCO)cc1Nc1cc(Nc2c(F)cccc2C(=O)NC)c(C(F)(F)F)cn1 [Example 81, 2-{[2-{[1-Ethyl-3-(2-hydroxyethyl)-1H-pyrazol-5-yl]amino}-5-(trifluoromethyl)-4-pyridinyl]amino}-3-fluoro-N-methylbenzamide] | 2 |  | 
[2H]C([2H])(O)c1cc(Nc2cc(Nc3c(F)cccc3C(=O)NC)c(Cl)cn2)n(CC)n1 [Example 94, 2-[(5-Chloro-2-{[1-ethyl-3-(hydroxymethyl)-1H-pyrazol-5-yl]amino}-4-pyridinyl)amino]-3-fluoro-N-methylbenzamide-d2] | 3.98 |  | 
CNC(=O)c1cccc(F)c1Nc1cc(Nc2cc(CCO)nn2C)ncc1C(F)(F)F [Example 82, 3-Fluoro-2-{[2-{[3-(2-hydroxyethyl)-1-methyl-1H-pyrazol-5-yl]amino}-5-(trifluoromethyl)-4-pyridinyl]amino}-N-methylbenzamide] | 0.794 |  | 
CONC(=O)c1cc(F)ccc1Nc1cc(Nc2cc(C)nn2C(C)C)ncc1Cl [Example 71, 2-[(5-Chloro-2-{[3-methyl-1-(1-methylethyl)-1H-pyrazol-5-yl]amino}-4-pyridinyl)amino]-5-fluoro-N-(methyloxy)benzamide] | 6.31 |  | 
CNC(=O)c1ccccc1Nc1cc(Nc2cc(C)nn2C)ncc1C(C)C [Example 58, 2-[2-(2,5-Dimethyl-2H-pyrazol-3-ylamino)-5-isopropyl-pyridin-4-ylamino]-N-methyl-benzamide] | 50.1 |  | 
CNC(=O)c1cccc(F)c1Nc1cc(Nc2cc(C)nn2C)ncc1C(F)(F)F [Example 78, 2-{[2-[(1,3-Dimethyl-1H-pyrazol-5-yl)amino]-5-(trifluoromethyl)-4-pyridinyl]amino}-3-fluoro-N-methylbenzamide] | 1.58 |  | 
CNC(=O)c1ccccc1Nc1cc(Nc2cc(C)nn2C)ncc1C1CC1 [Example 53, 2-[5-Cyclopropyl-2-(2,5-dimethyl-2H-pyrazol-3-ylamino)-pyridin-4-ylamino]-N-methyl-benzamide] | 39.8 |  | 
